Data on two compounds can be found in PMC5567249, “Reversible inactivation of a peptidoglycan transpeptidase by a β-lactam antibiotic mediated by β-lactam-ring recyclization in the enzyme active site” (Scientific Reports, 2017).

The structures appear in SMILES notation.

The target in assay [1] is T1, Ldtfm (Enterococcus faecium, UniProt Q3Y185).
T1 construct: gene HMPREF0351_12555; catalytic domain, residues 341 to 466
Nature of the assay: stopped-flow competition with nitrocefin at […] nm. It counts as binding. The following applies: covalent; irreversible acylation; 22 µM enzyme, 50 µM nitrocefin, 64 µM imipenem; 100 mM sodium phosphate pH 6.0; 20 °C.

Assay [2] has as its target T1, Ldtfm. Nature of the assay: stopped-flow spectrophotometry at […] nm, slope of kobs against nitrocefin concentration. It counts as biochemical. The conditions noted are these: covalent; reversible acylation of catalytic Cys; 11 µM enzyme; 100 mM sodium phosphate pH 6.0; 20 °C.

T1 sequence (Q3Y185 entry or part of it): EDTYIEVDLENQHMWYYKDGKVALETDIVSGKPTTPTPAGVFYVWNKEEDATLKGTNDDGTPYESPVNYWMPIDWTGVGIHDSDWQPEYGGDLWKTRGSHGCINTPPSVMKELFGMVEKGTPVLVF

With `C[C@@H](O)[C@H]1C(=O)N2C(C(=O)O)=C(SCCN=CN)C[C@H]12` [imipenem], the “stopped-flow competition with nitrocefin at 486 nm” value in assay [1] is “imipenem gradually replaced nitrocefin in the enzyme active site”.

Consider `O=C(Cc1cccs1)N[C@@H]1C(=O)N2C(C(=O)O)=C(/C=C/c3ccc([N+](=O)[O-])cc3[N+](=O)[O-])CS[C@H]12` [nitrocefin], for which the “efficacy of the acylation reaction” value in assay [2] is listed as 24,000 ± 700 M^−1 s^−1.
